Data on six compounds can be found in patent US4302472A, “Substituted N-(β-alkoxy-ethyl)-N-(4-phenoxy-benzyl)-dichloro-acetamides and process for their preparation” (Farmitalia Carlo Erba S.p.A., priority 1977, dated 1981).

Data set [1] relates to Entamoeba histolytica Meah. Nature of the data set: In vitro antiamebic activity by serial dilutions in monophasic Pavlova medium. It is filed as cell-based. The settings on record: 48 hours, 37° C.; for minimal amoebicidal concentration, mean: mean of Dosage I-X. How it is done: The in vitro activity on Entamoeba histolytica Meah was determined on the products under test and on reference compounds, by the method of serial dilutions (ratio 1:1.5) in monophasic Pavlova medium with inoculation of 30,000 protozoa/ml and with incubation at 37° C. for 48 hours.
The level of activity of the compounds was determined by means of direct microscopical examination at 125 and 500 magnifications of the entire sediment of each culture. The results were expressed as minimal amoebicidal concentration in μg/ml.

Data set [2] relates to Entamoeba histolytica Meah. As to the kind of experiment: In vivo antiamebic activity in intestinal infection in the rat. The settings on record: for Mean Score: by gavage, 20 animals, score 0 (no amoebae, no ulceration) to 5, vehicle control 3.5; for ED50: Entamoeba histolytica, po, calculated on the number of animals with score = 0, rat, by gavage twice a day for 21/2 days. Details: species or system albino rats (strain:Wistar CFHB); key to Mean Score: mean score, 0 = no amoebae/ulceration to 5 = >half cecum ulcerated. How it is done: The in vivo antiamebic activity in the intestinal infection was determined with a method similar to the method described by Jones (Ann.trop.Med.Paras., 40, 130-140, 1946), as reported hereunder. Young, specific pathogen free albino rats (strain:Wistar CFHB) weighing 30-35 g and fed on a low-protein diet, were infected by intracecal injection with a suspension of trophozoites of Entamoaba histolytica Meah (250,000/rat) containing 3% of Wilson […] mucin. The substances under test and the reference products were administered in serial doses, by gavage twice a day for 21/2 days. The therapeutic effect was determined on the fifth day after infection on the basis of the presence or absence of amebic ulcers in the cecal mucosa and of viable amoebae in the cecal mucosa and in the fecal content of the cecum.
Each animal was assigned a score, according to the following scale:
score 0=no amoebae, no ulceration;
score 1=from 1 to 20 amoebae per faecal smear; no amoeba in the scrape of caecal mucosa; no ulceration;
score 2=from 20 to a very large number of amoebae per smear of feces; no ameoba in the mucosal scrape; no ulceration;
score 3=amoebae originating from microscopic lesions of the cecal mucosa;
score 4=microscopic lesions of the cecal mucosa;
score 5=more than half the cecum ulcerated by amoebic lesions.
The antiamebic activity was expressed both as ED50 calculated according to the number of animals totally free of amoebae (score=0) and as mean score for each dose level.

The nature of data set [3]: Approximate acute toxicity (LD50) in the mouse, single administration per os. The settings on record: in vivo, po, measured on the seventh day. How it is done: The toxicity of the compounds of the invention is quite negligible. For example, for the compounds A and B mentioned in the foregoing Tables the approximate acute toxicity (LD50) in the mouse, determined with single administration of increasing doses and measured on the seventh day of treatment, was, per os, much higher than 800 mg/kg. Similar LD50 are found also for the other compounds of the invention, in particular for the compounds: […]

The next data set is described as follows: Absorption. The settings on record: in vivo.
Data set [4] relates to amoebae within the intestinal wall. As to the kind of experiment: Activity on amoebae within the intestinal wall. The settings on record: in vivo.

Regarding `CCOCCN(Cc1ccc(Oc2ccc(N)cc2)cc1)C(=O)C(Cl)Cl` [Compound A, N-(β-ethoxy-ethyl)-N-[4-phenoxy-(4'-amino)-benzyl]-dichloroacetamide], the minimal amoebicidal concentration in data set [1] (Dosage I) stood at 0.017 µg/mL; in data set [1] (Dosage II), 0.017 µg/mL; in data set [1] (Dosage III), 0.017 µg/mL; in data set [1] (Dosage IV), 0.026 µg/mL; in data set [1] (Dosage IX) it was 0.026 µg/mL; in data set [1] (Dosage V), 0.011 µg/mL. For the same compound, the minimal amoebicidal concentration turned out to be 0.011 µg/mL in data set [1] (Dosage VI), 0.026 µg/mL in data set [1] (Dosage VII), 0.017 µg/mL in data set [1] (Dosage VIII) and 0.026 µg/mL in data set [1] (Dosage X). Further, the “minimal amoebicidal concentration, mean” value in data set [1] is 0.019 µg/mL. The “Mean Score” value in data set [2] (6.2 mg/kg × 5 times) stood at 1.6; in data set [2] (12.5 mg/kg × 5 times) it was 1.1; in data set [2] (25 mg/kg × 5 times), 1.0; in data set [2] (50 mg/kg × 5 times), 0.5. Also, the ED50 in data set [2] is 19 mg/kg. The LD50 at 168 h in data set [3] is greater than 800 mg/kg.

On to `CCOCCN(Cc1ccc(Oc2ccc(NC(C)=O)cc2)cc1)C(=O)C(Cl)Cl` [Compound B, N-(β-ethoxy-ethyl)-N-[4-phenoxy-(4'-acetamido)-benzyl]-dichloroacetamide], for which the minimal amoebicidal concentration in data set [1] (Dosage I) was determined as 0.004 µg/mL; in data set [1] (Dosage II) it was 0.005 µg/mL; in data set [1] (Dosage III) it was 0.007 µg/mL; in data set [1] (Dosage IV), 0.013 µg/mL; in data set [1] (Dosage IX) it was 0.017 µg/mL; in data set [1] (Dosage V), 0.017 µg/mL. Moreover, the minimal amoebicidal concentration in data set [1] (Dosage VI) stood at 0.008 µg/mL; in data set [1] (Dosage VII) it was 0.003 µg/mL; in data set [1] (Dosage VIII) it was 0.026 µg/mL; in data set [1] (Dosage X) it was 0.017 µg/mL. The “minimal amoebicidal concentration, mean” value in data set [1] worked out at 0.011 µg/mL. The LD50 at 168 h in data set [3] was greater than 800 mg/kg.

On to `CN(C(=O)C(Cl)Cl)c1ccc(OC(=O)c2ccco2)cc1` [Diloxanide furoate], for which the minimal amoebicidal concentration in data set [1] (Dosage I) was found to be 0.44 µg/mL; in data set [1] (Dosage II), 0.44 µg/mL; in data set [1] (Dosage III), 0.44 µg/mL; in data set [1] (Dosage IV), 0.29 µg/mL; in data set [1] (Dosage IX) it was 0.19 µg/mL; in data set [1] (Dosage V) it was 0.29 µg/mL. The minimal amoebicidal concentration came to 0.19 µg/mL in data set [1] (Dosage VI), 0.29 µg/mL in data set [1] (Dosage VII), 0.19 µg/mL in data set [1] (Dosage VIII) and 0.19 µg/mL in data set [1] (Dosage X). Besides, the “minimal amoebicidal concentration, mean” value in data set [1] stood at 0.30 µg/mL.

`CCOCCN(Cc1ccc(Oc2ccc([N+](=O)[O-])cc2)cc1)C(=O)C(Cl)Cl` [Etofamide]: the minimal amoebicidal concentration in data set [1] (Dosage I) was found to be 0.026 µg/mL; in data set [1] (Dosage II), 0.026 µg/mL; in data set [1] (Dosage III), 0.058 µg/mL; in data set [1] (Dosage IV), 0.058 µg/mL; in data set [1] (Dosage IX) it was 0.058 µg/mL; in data set [1] (Dosage V) it was 0.026 µg/mL. The minimal amoebicidal concentration in data set [1] (Dosage VI) came to 0.017 µg/mL; in data set [1] (Dosage VII), 0.039 µg/mL; in data set [1] (Dosage VIII), 0.017 µg/mL; in data set [1] (Dosage X) it was 0.039 µg/mL. In data set [1], the “minimal amoebicidal concentration, mean” value turned out to be 0.036 µg/mL. Moreover, the “Mean Score” value in data set [2] (6.2 mg/kg × 5 times) is recorded as 3.3; in data set [2] (12.5 mg/kg × 5 times), 1.6; in data set [2] (25 mg/kg × 5 times), 1.3; in data set [2] (50 mg/kg × 5 times), 1.0. Also, in data set [2], the ED50 is 29 mg/kg.

For `CCOCCN(Cc1ccc(Oc2ccc(NC(=O)CN)cc2)cc1)C(=O)C(Cl)Cl` [N-(β-ethoxy-ethyl)-N-[4-phenoxy-(4'-glycinylamino)-benzyl]-dichloroacetamide], in “Absorption”, the absorption result is listed as “absorbed to a greater extent”. Moreover, in data set [4], the “activity on amoebae within the intestinal wall” value is recorded as “active on amoebae within the intestinal wall itself”.

Take `CCOCCN(Cc1ccc(CN(CCOCC)C(=O)C(Cl)Cl)cc1)C(=O)C(Cl)Cl` [Teclozan]: the minimal amoebicidal concentration is 0.058 µg/mL in data set [1] (Dosage I); 0.058 µg/mL in data set [1] (Dosage II); 0.087 µg/mL in data set [1] (Dosage III); 0.058 µg/mL in data set [1] (Dosage IV); 0.087 µg/mL in data set [1] (Dosage IX); 0.087 µg/mL in data set [1] (Dosage V). For the same compound, the minimal amoebicidal concentration in data set [1] (Dosage VI) amounted to 0.058 µg/mL; in data set [1] (Dosage VII), 0.087 µg/mL; in data set [1] (Dosage VIII), 0.087 µg/mL; in data set [1] (Dosage X), 0.058 µg/mL. For the same compound, the “minimal amoebicidal concentration, mean” value in data set [1] is 0.072 µg/mL.

By ED50 is commonly meant the dose that gives a 50% effect, or the effect in half of the subjects. In general, LD50 refers to the dose expected to kill half of the subjects tested.
